Measured values taken from ChEMBL document CHEMBL1909046, “DrugMatrix in vitro pharmacology data”.
*1 amine or outer side, *2 acyl side, *3 side chain or, on linkers, in order; H or OH if unused. Where a SMILES comes first, the peptide text is derived from it. Bridges are numbered along the chain shown (N, C = ends). Roman numbers before positions name the chains, in order. [ ]: non-standard residue; d: D form. Actinocin(1to9) = Cc1c2oc3c(C)ccc(C(=O)[*:2])c3nc-2c(C(=O)[*:1])c(N)c1=O; NMeV = CN[C@H](C(=O)O)C(C)C; Sar = CNCC(=O)O

Assays:
[1] = biological target: 5-hydroxytryptamine receptor 6 (Homo sapiens, UniProt P50406); format: cell membranes, HeLa, Membrane; conditions: for Ki: read-out: Ki; for all read-outs here: in other assays of this panel Not Active means under 50% inhibition at 10 µM
[2] = biological target: T1, Alpha-2C adrenergic receptor (Homo sapiens, UniProt P18825); test: DRUGMATRIX: Adrenergic Alpha-2C radioligand binding (ligand: [3H] MK-912); format: cell membranes, Sf9, Membrane; conditions: for Ki: read-out: Ki
T1 sequence (P18825 whole entry): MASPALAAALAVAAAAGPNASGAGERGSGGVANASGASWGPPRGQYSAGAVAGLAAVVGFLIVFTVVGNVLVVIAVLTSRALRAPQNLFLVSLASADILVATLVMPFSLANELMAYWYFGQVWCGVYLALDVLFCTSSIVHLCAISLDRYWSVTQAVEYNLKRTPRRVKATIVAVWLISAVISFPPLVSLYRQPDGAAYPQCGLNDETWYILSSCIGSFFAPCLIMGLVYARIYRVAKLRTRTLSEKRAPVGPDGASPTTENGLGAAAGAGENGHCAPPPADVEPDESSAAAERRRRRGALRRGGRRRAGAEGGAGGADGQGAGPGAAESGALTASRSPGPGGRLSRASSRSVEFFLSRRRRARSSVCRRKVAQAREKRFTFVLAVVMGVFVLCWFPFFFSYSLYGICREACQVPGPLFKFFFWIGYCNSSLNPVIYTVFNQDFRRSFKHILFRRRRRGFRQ

[3] = biological target: Beta-2 adrenergic receptor (Homo sapiens, UniProt P07550); test: DRUGMATRIX: Adrenergic beta2 radioligand binding (ligand: [3H] CGP-12177); format: cell membranes, Membrane; conditions: cho; Not Active = under 50% inhibition at 10 µM
[4] = biological target: T2, Cholecystokinin receptor type A (Homo sapiens, UniProt P32238); format: cell membranes, Membrane; conditions: 1321-n1; note: in other assays of this panel Not Active means under 50% inhibition at 10 µM
T2 sequence (P32238 whole entry): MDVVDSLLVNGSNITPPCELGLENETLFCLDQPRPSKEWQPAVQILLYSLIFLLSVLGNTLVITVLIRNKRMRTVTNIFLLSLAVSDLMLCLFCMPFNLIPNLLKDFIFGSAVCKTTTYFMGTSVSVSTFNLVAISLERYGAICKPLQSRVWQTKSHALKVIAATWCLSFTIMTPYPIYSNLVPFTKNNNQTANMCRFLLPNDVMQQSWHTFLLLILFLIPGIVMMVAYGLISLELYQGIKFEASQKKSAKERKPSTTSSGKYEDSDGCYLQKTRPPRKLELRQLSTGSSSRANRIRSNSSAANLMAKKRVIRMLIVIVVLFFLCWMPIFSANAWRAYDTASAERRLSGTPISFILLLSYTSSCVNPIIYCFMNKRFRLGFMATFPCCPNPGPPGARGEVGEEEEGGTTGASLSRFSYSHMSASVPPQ

[5] = biological target: Platelet-activating factor receptor (Homo sapiens, UniProt P25105); format: tissue-based; note: in other assays of this panel Not Active means under 50% inhibition at 10 µM
[6] = biological target: Estrogen receptor beta (Homo sapiens, UniProt Q92731); conditions: sf9; note: in other assays of this panel Not Active means under 50% inhibition at 10 µM
[7] = biological target: T3, C-C chemokine receptor type 4 (Homo sapiens, UniProt P51679); format: cell membranes, Chem-1, Membrane; conditions: chem-1; note: in other assays of this panel Not Active means under 50% inhibition at 10 µM
T3 sequence (P51679 whole entry): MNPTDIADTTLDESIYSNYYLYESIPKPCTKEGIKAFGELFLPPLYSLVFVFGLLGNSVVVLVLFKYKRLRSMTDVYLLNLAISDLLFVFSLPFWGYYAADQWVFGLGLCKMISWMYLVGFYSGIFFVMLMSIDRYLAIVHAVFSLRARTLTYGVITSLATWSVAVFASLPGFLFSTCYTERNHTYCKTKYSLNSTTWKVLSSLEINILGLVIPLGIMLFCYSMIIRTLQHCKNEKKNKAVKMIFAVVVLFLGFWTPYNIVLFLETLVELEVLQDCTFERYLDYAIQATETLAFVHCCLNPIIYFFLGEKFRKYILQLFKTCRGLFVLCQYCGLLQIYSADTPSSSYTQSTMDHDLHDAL

Beta-2 adrenergic receptor, sequence (P07550 whole entry): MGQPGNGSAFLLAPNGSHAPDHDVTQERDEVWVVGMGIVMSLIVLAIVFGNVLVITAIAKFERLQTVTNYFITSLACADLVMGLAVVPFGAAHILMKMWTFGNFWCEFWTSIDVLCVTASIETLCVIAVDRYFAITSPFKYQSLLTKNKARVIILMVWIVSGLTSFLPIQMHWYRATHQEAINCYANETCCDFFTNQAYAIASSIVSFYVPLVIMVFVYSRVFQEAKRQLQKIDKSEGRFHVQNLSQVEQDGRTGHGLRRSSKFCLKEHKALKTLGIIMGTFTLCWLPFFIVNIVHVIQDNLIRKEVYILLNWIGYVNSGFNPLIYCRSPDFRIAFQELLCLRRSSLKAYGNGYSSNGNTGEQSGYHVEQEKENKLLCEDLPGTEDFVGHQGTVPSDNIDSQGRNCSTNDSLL
5-hydroxytryptamine receptor 6, sequence (P50406 whole entry): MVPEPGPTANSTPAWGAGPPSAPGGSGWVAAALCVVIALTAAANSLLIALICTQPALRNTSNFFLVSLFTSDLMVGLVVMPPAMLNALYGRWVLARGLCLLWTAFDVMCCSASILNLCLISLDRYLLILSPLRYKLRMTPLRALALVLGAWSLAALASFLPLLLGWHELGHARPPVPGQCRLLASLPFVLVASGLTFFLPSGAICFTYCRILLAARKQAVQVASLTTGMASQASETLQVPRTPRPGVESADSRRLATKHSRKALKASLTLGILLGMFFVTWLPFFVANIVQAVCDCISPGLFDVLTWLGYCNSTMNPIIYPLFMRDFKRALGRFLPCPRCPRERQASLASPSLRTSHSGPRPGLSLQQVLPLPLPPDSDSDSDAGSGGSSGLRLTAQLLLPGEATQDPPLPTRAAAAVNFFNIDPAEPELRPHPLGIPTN
Platelet-activating factor receptor, sequence (P25105 whole entry): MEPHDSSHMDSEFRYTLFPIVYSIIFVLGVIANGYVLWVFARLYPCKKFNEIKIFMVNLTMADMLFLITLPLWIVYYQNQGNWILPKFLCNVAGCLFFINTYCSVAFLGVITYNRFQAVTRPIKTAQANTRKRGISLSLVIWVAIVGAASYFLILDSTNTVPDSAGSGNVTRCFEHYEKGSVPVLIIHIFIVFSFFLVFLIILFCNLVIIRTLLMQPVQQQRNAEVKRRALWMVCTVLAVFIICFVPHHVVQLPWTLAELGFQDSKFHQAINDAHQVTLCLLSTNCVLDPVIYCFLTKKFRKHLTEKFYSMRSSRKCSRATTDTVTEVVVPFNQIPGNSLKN
Estrogen receptor beta, sequence (Q92731 whole entry): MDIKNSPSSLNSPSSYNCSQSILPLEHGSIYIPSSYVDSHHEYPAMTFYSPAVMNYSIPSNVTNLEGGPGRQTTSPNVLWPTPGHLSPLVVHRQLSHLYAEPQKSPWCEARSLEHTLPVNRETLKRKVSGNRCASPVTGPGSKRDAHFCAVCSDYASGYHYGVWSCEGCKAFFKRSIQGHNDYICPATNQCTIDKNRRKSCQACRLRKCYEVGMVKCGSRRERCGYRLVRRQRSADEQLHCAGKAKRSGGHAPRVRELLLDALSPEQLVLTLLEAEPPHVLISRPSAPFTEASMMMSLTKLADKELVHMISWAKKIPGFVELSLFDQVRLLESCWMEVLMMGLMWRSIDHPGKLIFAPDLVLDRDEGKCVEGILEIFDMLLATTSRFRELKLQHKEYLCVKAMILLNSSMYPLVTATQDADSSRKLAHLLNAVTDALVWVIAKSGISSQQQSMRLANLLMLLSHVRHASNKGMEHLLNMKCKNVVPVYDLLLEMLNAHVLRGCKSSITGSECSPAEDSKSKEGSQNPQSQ

SMILES | IC50 ([1]; hela) | IC50 ([2]; sf9) | IC50 [3] | IC50 [4] | IC50 [5] | IC50 [6] | IC50 [7] | IC50 ([2]; read-out: IC50) | Ki [2] | IC50 ([1]; read-out: IC50) | Ki [1]
C[C@H](CS)C(=O)N1CCC[C@H]1C(=O)O [CAPTOPRIL] | Not Active | Not Active | Not Active | Not Active | Not Active | Not Active | Not Active | – | – | – | –
Cc1cc(C2CCCCC2)n(O)c(=O)c1 [CICLOPIROX] | Not Active | Not Active | Not Active | Not Active | Not Active | Not Active | Not Active | – | – | – | –
CC1=C2C(=CO[C@H](C)[C@H]2C)C(O)=C(C(=O)O)C1=O [CITRININ] | Not Active | Not Active | Not Active | Not Active | Not Active | Not Active | Not Active | – | – | – | –
Cc1cc(C(C#N)c2ccc(Cl)cc2)c(Cl)cc1NC(=O)c1cc(I)cc(I)c1O (stereo not given) [CLOSANTEL] | Not Active | – | Not Active | Not Active | Not Active | Not Active | Not Active | 7100 nM | 1000 nM | – | –
Cc1onc(-c2ccccc2Cl)c1C(=O)N[C@@H]1C(=O)N2[C@@H]1SC(C)(C)[C@@H]2C(=O)O [CLOXACILLIN] | Not Active | Not Active | Not Active | Not Active | Not Active | Not Active | Not Active | – | – | – | –
CC1CC(OC(=O)C(O)c2ccccc2)CC(C)(C)C1 (stereo not given) [CYCLANDELATE] | Not Active | Not Active | Not Active | Not Active | Not Active | Not Active | Not Active | – | – | – | –
Cc1c2oc3c(C)ccc(C(=O)N[C@@H]4C(=O)N[C@H](C(C)C)C(=O)N5CCC[C@H]5C(=O)N(C)CC(=O)N(C)[C@@H](C(C)C)C(=O)O[C@@H]4C)c3nc-2c(C(=O)N[C@@H]2C(=O)N[C@H](C(C)C)C(=O)N3CCC[C@H]3C(=O)N(C)CC(=O)N(C)[C@@H](C(C)C)C(=O)O[C@@H]2C)c(N)c1=O [DACTINOMYCIN] (I: T[dV]P[Sar][NMeV] / II: T[dV]P[Sar][NMeV]; ester I:1-I:C, II:1-II:C; linker I:N-II:N via Actinocin(1to9)) | Not Active | Not Active | Not Active | Not Active | Not Active | Not Active | Not Active | – | – | – | –
Cc1c(O)c(=O)ccn1C [DEFERIPRONE] | Not Active | Not Active | Not Active | Not Active | Not Active | Not Active | Not Active | – | – | – | –
O=c1oc2ccccc2c(O)c1Cc1c(O)c2ccccc2oc1=O [DICUMAROL] | Not Active | Not Active | Not Active | Not Active | Not Active | Not Active | Not Active | – | – | – | –
C[C@H]1O[C@@H](O[C@H]2[C@@H](O)C[C@H](O[C@H]3[C@@H](O)C[C@H](O[C@H]4CC[C@@]5(C)[C@H](CC[C@@H]6[C@@H]5C[C@@H](O)[C@]5(C)[C@@H](C7=CC(=O)OC7)CC[C@]65O)C4)O[C@@H]3C)O[C@@H]2C)C[C@H](O)[C@@H]1O [DIGOXIN] | Not Active | Not Active | Not Active | Not Active | Not Active | Not Active | Not Active | – | – | – | –
CC(C)[C@@]1(NC(=O)[C@@H]2C[C@@H]3c4cccc5[nH]cc(c45)C[C@H]3N(C)C2)O[C@@]2(O)[C@@H]3CCCN3C(=O)[C@H](Cc3ccccc3)N2C1=O.CS(=O)(=O)O [DIHYDROERGOCRISTINE MESYLATE] | – | – | Not Active | Not Active | Not Active | Not Active | Not Active | 8.65 nM | 1.26 nM | 42 nM | 19 nM
O=C(CCCN1CC=C(n2c(=O)[nH]c3ccccc32)CC1)c1ccc(F)cc1 [DROPERIDOL] | Not Active | – | Not Active | Not Active | Not Active | Not Active | Not Active | 1760 nM | 256 nM | – | –
CC(C)[C@H]1C(=O)N2CCC[C@H]2[C@]2(O)O[C@](NC(=O)[C@@H]3C=C4c5cccc6[nH]cc(c56)C[C@H]4N(C)C3)(C(C)C)C(=O)N12 [ERGOCORNINE] | – | – | Not Active | Not Active | Not Active | Not Active | Not Active | 17 nM | 2.41 nM | 15 nM | 7.09 nM
OC(Cn1cncn1)(Cn1cncn1)c1ccc(F)cc1F [FLUCONAZOLE] | Not Active | Not Active | Not Active | Not Active | Not Active | Not Active | Not Active | – | – | – | –
CC(C)C(=O)Nc1ccc([N+](=O)[O-])c(C(F)(F)F)c1 [FLUTAMIDE] | – | Not Active | Not Active | Not Active | Not Active | Not Active | Not Active | – | – | 17800 nM | 8270 nM
CC1(C)O[C@@H]2C[C@H]3[C@@H]4CCC5=CC(=O)CC[C@]5(C)[C@@]4(F)[C@@H](O)C[C@]3(C)[C@]2(C(=O)CCl)O1 [HALCINONIDE] | Not Active | Not Active | Not Active | Not Active | Not Active | Not Active | Not Active | – | – | – | –
O=c1[nH]c(=O)n([C@H]2C[C@H](O)[C@@H](CO)O2)cc1I [IDOXURIDINE] | Not Active | Not Active | Not Active | Not Active | Not Active | Not Active | Not Active | – | – | – | –
CC1Cc2ccccc2N1NC(=O)c1ccc(Cl)c(S(N)(=O)=O)c1 (stereo not given) [INDAPAMIDE] | Not Active | Not Active | Not Active | Not Active | Not Active | Not Active | Not Active | – | – | – | –
CCC(C)n1ncn(-c2ccc(N3CCN(c4ccc(OCC5COC(Cn6cncn6)(c6ccc(Cl)cc6Cl)O5)cc4)CC3)cc2)c1=O (stereo not given) [ITRACONAZOLE] | Not Active | Not Active | Not Active | Not Active | Not Active | Not Active | Not Active | – | – | – | –
CCCCN1CCCC[C@H]1C(=O)Nc1c(C)cccc1C [LEVOBUPIVACAINE] | Not Active | Not Active | Not Active | Not Active | Not Active | Not Active | Not Active | – | – | – | –
CCCCc1nc(Cl)c(CO)n1Cc1ccc(-c2ccccc2-c2nnn[nH]2)cc1 [LOSARTAN] | Not Active | Not Active | Not Active | Not Active | Not Active | Not Active | Not Active | – | – | – | –
Sc1ncnc2nc[nH]c12 [MERCAPTOPURINE ANHYDROUS] | Not Active | Not Active | Not Active | Not Active | Not Active | Not Active | Not Active | – | – | – | –
Cc1ccccc1N1C(=O)c2cc(S(N)(=O)=O)c(Cl)cc2NC1C (stereo not given) [METOLAZONE] | Not Active | Not Active | Not Active | Not Active | Not Active | Not Active | Not Active | – | – | – | –
CCn1cc(C(=O)O)c(=O)c2cc(F)c(N3CCNCC3)cc21 [NORFLOXACIN] | Not Active | Not Active | Not Active | Not Active | Not Active | Not Active | Not Active | – | – | – | –
